In patent US20230263822A1, “MODULATION OF FACTOR 11 EXPRESSION” (Ionis Pharmaceuticals, Inc., priority 2008, published 2023):
Several values for one entry are separate records, joined by “and”; a condition that tells them apart may be missing. Equal entries are not always repeated. Strand notation (5' to 3'): a small letter for the sugar, then the base; units joined by * are phosphorothioate-linked, units joined directly phosphodiester-linked; [ ] holds rarer units or linkages, { } end groups; capitals alone tell only the bases. e = 2'-O-(2-methoxyethyl) (MOE); [5mC] = 5-methylcytosine; d = 2'-deoxy (DNA)

Key:
[1] = Viscosity of ISIS antisense oligonucleotides, micro-viscometer at 25 °C (Example 47); format: physicochemical; details: for Concentration: concentration of the viscosity sample, UV reading at 260 nM at 85° C.; for Viscosity: in water, micro-viscometer at 25° C., at the concentration of the same line
How it was run: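 Oligonucleotide (32-35 mg) was dissolved in 120 μL water by heating at 50° C, and viscosity was measured by micro-viscometer at 25° C. Concentration was checked by UV at 260 nm at 85° C on a dilution in water. Screening cut-off: >40 cP at 165-185 mg/mL.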

[2] = Body and organ weights of cynomolgus monkeys (Example 46); format: in vivo; parameters: Liver weight / Spleen weight / Kidney weight: unit not given here; details: for Kidney weight / Liver weight / Spleen weight: day 55, after euthanasia
Procedure: Groups, each consisting of two male and two female monkeys, were injected subcutaneously with 25 mg/kg of ISIS 416850, ISIS 449709, ISIS 445522, ISIS 449710, ISIS 449707, ISIS 449711, ISIS 449708, 416858, and ISIS 445531. Antisense oligonucleotide was administered to the monkeys at 25 mg/kg three times per week for week 1 and 25 mg/kg twice per week for weeks 2 to 8. A control group, consisting of two male and two female monkeys was injected subcutaneously with PBS according to the same dosing regimen. Body weights were taken 14 days and 7 days before the start of treatment and were then measured weekly throughout the treatment period. Blood samples were collected 14 days and 5 days before the start of treatment and subsequently several times during the dosing regimen for PT and aPTT measurements, and measurement of various hematologic factors. On day 55, the monkeys were euthanized by exsanguination while under deep anesthesia, and organs harvested for further analysis.
Organ weights were taken after the animals were euthanized on day 55, and livers, kidneys and spleens were harvested.

Q: With “412223 (antisense ACAGTTTCTGGCAGGCCTCG; 5-10-5 MOE gapmer, further chemistry not given here) [compound 412223]” as the substance, how does the Concentration [1] read?
A: 163 mg/mL

Q: What about the Viscosity [1] of the same substance?
A: 8 cP

Q: Which results are given for “413482 (antisense GGACGGCATTGGTGCACAGT; 5-10-5 MOE gapmer, further chemistry not given here) [compound 413482]”?
A: Concentration [1]: 172 mg/mL; Viscosity [1]: 16. cP

Q: What does the source list for “ISIS 416850: MOE gapmer, nucleobases 1275 to 1318 of SEQ ID NO: 1 (Table 8) (antisense TGCACAGTTTCTGGCAGGCC; MOE gapmer, wing and gap sizes not given here)”?
A: body weight ([2]; day 1): 2083 g; body weight ([2]; day 8): 2072 g; body weight ([2]; day 15): 2147 g; body weight ([2]; day 22): 2139 g; body weight ([2]; day 29): 2159 g; body weight ([2]; day 36): 2136 g; body weight ([2]; day 43): 2186 g; body weight ([2]; day 50): 2143 g; Kidney weight [2]: 0.51; Liver weight [2]: 2.5; Spleen weight [2]: 0.17; body weight ([2]; day −7): 2074 g; body weight ([2]; day −14): 2061 g

Q: Which results are given for “445522 (antisense eG*e[5mC]*eA*e[5mC]*eA*dG*dT*dT*dT*d[5mC]*dT*dG*dG*e[5mC]*eA*eG*eG*e[5mC]) [compound 445522]”?
A: Concentration [1]: 173 mg/mL and 174 mg/mL; Viscosity [1]: 63 cP and 58 cP

Q: What does the source list for “ISIS 449708: 3-8-3, 4-8-4, 2-10-2, 3-10-3 or 4-10-4 MOE microwalk gapmer (Table 46) (antisense eA*e[5mC]*eA*dG*dT*dT*dT*d[5mC]*dT*dG*dG*e[5mC]*eA*eG)”?
A: body weight ([2]; day 1): 2130 g; body weight ([2]; day 8): 2148 g; body weight ([2]; day 15): 2125 g; body weight ([2]; day 22): 2110 g; body weight ([2]; day 29): 2095 g; body weight ([2]; day 36): 2100 g; body weight ([2]; day 43): 2125 g; body weight ([2]; day 50): 2076 g; Kidney weight [2]: 0.60; Liver weight [2]: 2.6; Spleen weight [2]: 0.19; body weight ([2]; day −7): 2163 g; body weight ([2]; day −14): 2096 g

Q: For “ISIS 445522: 5-8-5 or 6-8-6 MOE microwalk gapmer (Table 44) (antisense eG*e[5mC]*eA*e[5mC]*eA*dG*dT*dT*dT*d[5mC]*dT*dG*dG*e[5mC]*eA*eG*eG*e[5mC])”, which body weight ([2]; day 1) is on record?
A: 2047 g

Q: What about the body weight ([2]; day 8) of the same substance?
A: 2094 g

Q: What about the body weight ([2]; day 15) of the same substance?
A: 2092 g

Q: What about the body weight ([2]; day 22) of the same substance?
A: 2114 g

Q: And the body weight ([2]; day 29)?
A: 2125 g

Q: And the body weight ([2]; day 36)?
A: 2121 g

Q: What about the body weight ([2]; day 43) of the same substance?
A: 2142 g

Q: What about the body weight ([2]; day 50) of the same substance?
A: 2127 g

Q: What about the Kidney weight [2] of the same substance?
A: 0.55

Q: What about the Liver weight [2] of the same substance?
A: 2.6

Q: What about the Spleen weight [2] of the same substance?
A: 0.23

Q: What about the body weight ([2]; day −7) of the same substance?
A: 2042 g

Q: What about the body weight ([2]; day −14) of the same substance?
A: 2050 g

Q: What does the source list for “ISIS 445531: 5-8-5 or 6-8-6 MOE microwalk gapmer (Table 44) (antisense eG*eG*e[5mC]*eA*eT*dT*dG*dG*dT*dG*d[5mC]*dA*d[5mC]*eA*eG*eT*eT*eT)”?
A: body weight ([2]; day 1): 2125 g; body weight ([2]; day 8): 2119 g; body weight ([2]; day 15): 2109 g; body weight ([2]; day 22): 2143 g; body weight ([2]; day 29): 2148 g; body weight ([2]; day 36): 2191 g; body weight ([2]; day 43): 2233 g; body weight ([2]; day 50): 2197 g; Kidney weight [2]: 0.49; Liver weight [2]: 2.8; Spleen weight [2]: 0.24; body weight ([2]; day −7): 2092 g; body weight ([2]; day −14): 2079 g

Q: Which body weight ([2]; day 1) does the source give for “ISIS 416858: MOE gapmer, nucleobases 1275 to 1318 of SEQ ID NO: 1 (Table 8) (antisense ACGGCATTGGTGCACAGTTT; MOE gapmer, wing and gap sizes not given here)” here?
A: 2115 g

Q: And the body weight ([2]; day 8)?
A: 2149 g

Q: What about the body weight ([2]; day 15) of the same substance?
A: 2162 g

Q: And the body weight ([2]; day 22)?
A: 2188 g

Q: What about the body weight ([2]; day 29) of the same substance?
A: 2196 g

Q: What about the body weight ([2]; day 36) of the same substance?
A: 2210 g

Q: And the body weight ([2]; day 43)?
A: 2238 g

Q: And the body weight ([2]; day 50)?
A: 2225 g

Q: And the Kidney weight [2]?
A: 0.47

Q: What about the Liver weight [2] of the same substance?
A: 2.6

Q: What about the Spleen weight [2] of the same substance?
A: 0.24

Q: What about the body weight ([2]; day −7) of the same substance?
A: 2092 g

Q: And the body weight ([2]; day −14)?
A: 2073 g
